Key:
[1] = test system: HL-60; experiment: Growth inhibition of human HL60 cells by MTT assay; type: functional
[2] = test system: A549; experiment: Growth inhibition of human A549 cells by MTT assay; type: functional
[3] = test system: RAW264.7; experiment: Antiinflammatory activity in mouse RAW264.7 cells assessed as inhibition of LPS-stimulated TNFalpha production at 100 nM pretreated 1 hr before LPS challenge measured after 24 hrs by sandwich ELISA relative to control; type: functional
[4] = test system: HT-29; experiment: Growth inhibition of human HT-29 cells by MTT assay; type: functional
[5] = test system: SK-OV-3; experiment: Growth inhibition of human SKOV3 cells by MTT assay; type: functional
[6] = test system: A2780; experiment: Cytotoxicity against human A2780 cells; type: functional, cell-based

| Structure (SMILES) | GI50 [1] | GI50 [2] | inhibition at 0.1 µM [3] | GI50 [4] | GI50 [5] | IC50 [6] |
| --- | --- | --- | --- | --- | --- | --- |
| CC(=O)O[C@H]1CC[C@@]2(C)[C@@]3(OC[C@@H](OO3)[C@]3(C)[C@@]2(C)CC[C@@]2(C)[C@@H]4CC(C)(C)CC[C@]4(C)CC[C@]32C)C1(C)C [ACERANOL ACETATE] | 13.7 µM | 11.4 µM | 21% | 14.6 µM | 12.8 µM | – |
| C[C@H]1C(=O)CC[C@@H]2[C@]1(C)CC[C@H]1[C@@]2(C)CC[C@@]2(C)[C@@H]3CC(C)(C)CC[C@]3(C)CC[C@]12C [FRIEDELINE] | 12.2 µM | 11.1 µM | 23.5% | 13.5 µM | 12.7 µM | – |
| CC(=O)O[C@H]1CC[C@@H]2C(=CC[C@H]3[C@@]2(C)CC[C@@]2(C)[C@@H]4CC(C)(C)CC[C@]4(C)CC[C@]32C)C1(C)C [GLUTINOL ACETATE] | 16.2 µM | 17.9 µM | 25.4% | 16.3 µM | 12.1 µM | – |
| CC1(C)CC[C@]2(C)CC[C@]3(C)[C@H]4CC=C5[C@@H](CC[C@H](O)C5(C)C)[C@]4(C)CC[C@@]3(C)[C@@H]2C1 [GLUTINOL] | 16 µM | 11.6 µM | 16.9% | 14.1 µM | 12.6 µM | – |
| O=C1c2c(O)ccc(O)c2C(=O)c2c(NCCNCCO)ccc(NCCNCCO)c21 [MITOXANTRONE] | 7.8 µM | 8.3 µM | – | 8.9 µM | 11 µM | – |
| CC[C@H](CC[C@@H](C)[C@H]1CC[C@H]2[C@@H]3CC=C4C[C@@H](O[C@@H]5O[C@H](CO)[C@@H](O)[C@H](O)[C@H]5O)CC[C@]4(C)[C@H]3CC[C@]12C)C(C)C [SITOGLUSIDE] | 50.8 µM | 35.5 µM | 29.3% | 46.8 µM | 29.8 µM | – |
| CC(=O)O[C@H]1CC[C@]2(C)[C@H]3CC=C4[C@@H]5CC(C)(C)CC[C@]5(C)CC[C@@]4(C)[C@]3(C)CC[C@H]2C1(C)C [beta-AMYRIN ACETATE] | 14.6 µM | 11.4 µM | 38.4% | 12.5 µM | 14.6 µM | 12.5 µg/mL |
